Assay: Human HepG2 cell viability assay in 384 well format
Assay type: toxicity, cell-based
Parameters: dose 125 nL, time 70.5 hour; cytotoxicity at 70.5 h: concentration not given beside the values
Conditions: HepG2 cells, read-out: Inhibition

Row | SMILES | cytotoxicity at 70.5 h [%]
1 | CNC(=O)c1ccc(C2CN(C(=O)c3c[nH]nc3C)CCO2)nc1 (centres undefined) | -1.61
2 | O=C(c1cncs1)N1CCCC1c1ccn[nH]1 (centres undefined) | -3.39
3 | CCN1CC(C(=O)NCc2ccccc2-n2cccn2)CC1=O (centres undefined) | -10.2
4 | CS(=O)(=O)CCCNC(=O)NC1CC(c2cccc(Cl)c2)C1 (centres undefined) | -3.19
5 | O=C(O)c1ccnc(-c2ccnc(N3CCC(F)(F)CC3)n2)c1 | 21
6 | CCOCCC(=O)N1C[C@H]2CC[C@@H]1CN(c1ncccn1)C2 | -5.84
7 | CCc1ccc(C(COC)NC(=O)c2ccc(NC(C)=O)cc2)o1 (centres undefined) | -8.16
8 | Cc1noc(C)c1CN(C)CC(=O)/N=c1\cc[nH]n1C(C)C1CC1 (centres undefined) | 22.1
9 | Cc1noc(Cl)c1CCC(=O)N1CCC(CC(N)=O)CC1 | -4.77
10 | CN(C)S(=O)(=O)N1CC[C@@H]2CN(Cc3cnn(C)c3)C[C@@H]2C1 | 32.1
11 | Cc1ccc(NS(=O)(=O)c2cnn(Cc3ccccc3)c2)c(C(=O)O)c1 | -21.3
12 | CN(Cc1ccncc1)C(=O)NC1CCCN(c2ncccn2)C1 (centres undefined) | -1.22
13 | COc1ccc([C@@H]2CN(C(=O)CCC(F)(F)F)C[C@H]2NC(C)=O)cc1 | -5.27
14 | CN(Cc1ccc(Cl)c(Cl)c1)C(=O)CNC(N)=O | 0.00328
15 | CC(C)(C)c1cc(CN2C[C@@H]3CC[C@H](C2)N(Cc2ccccn2)C3)n[nH]1 | -9.78
16 | Cc1nn(C)c(N2CCOCC2)c1CNCc1cccnc1 | 24.7
17 | Cn1cc(C[C@H]2[C@H](N3CCOCC3)CCN2C2CCOCC2)cn1 | -13.7
18 | Cc1ncsc1CN1CC(C)(C2CC2)CC1=O (centres undefined) | -12.2
19 | CN(CCc1nccs1)C(=O)CC1(O)CCCCC1 | -5.26
20 | CCO[C@H]1CO[C@@]2(CCCN(S(=O)(=O)c3ccccc3)C2)C1 | 1.01
21 | Cc1nc(-c2ccccc2)sc1CNC(=O)c1ccc(=O)n(C)c1 | -3.22
22 | CS(=O)(=O)N1CC[C@]2(C[C@H](Oc3ccccn3)CO2)C1 | -7.19

Row | SMILES | cytotoxicity at 70.5 h [%]
23 | Cc1cc(NC(=O)CN2CCn3c(nnc3C3CC3)C2)n(C)n1 | 7.81
24 | c1cc(-c2nnc3sc(CCN4CCCC4)nn23)ccn1 | -9.13
25 | OC(COCc1ccccc1)CN1CCC(c2ccn[nH]2)CC1 (centres undefined) | 19.6
26 | O=C(O)c1nnn(Cc2cccc(C(F)(F)F)c2)c1-c1ccncc1 | -8.89
27 | Cc1noc([C@@H]2C[C@H](NC(=O)NC(C)C)CN2C)n1 | -0.832
28 | CC(C)c1nc(C2CCCN(C(=O)CN3CCCNC3=O)C2)no1 (centres undefined) | -6.67
29 | Cc1nc(CN2CCc3ccc(S(N)(=O)=O)cc32)oc1C | 0.0206
30 | Cn1[nH]c(Br)c2/c(=N\CCN)ncnc1-2 | -7.01
31 | CNC(=O)CS(=O)(=O)C1CCN(S(=O)(=O)c2ccccc2Cl)CC1 | 23.7
32 | CCCC(=O)NC1CCCN(C(=O)c2ccc(C)nc2)C1 (centres undefined) | 14.6
33 | Cc1ncsc1CN1C[C@@H]2COC[C@]2(CNC(=O)c2ccco2)C1 | -10.4
34 | Cc1cc(C)c2c(N3CCCN(C(=O)C4CCC4)CC3)ncnc2n1 | -6.75
35 | Clc1cc(CN2CCCCC2Cn2cncn2)c2ncccc2c1 (centres undefined) | -9.86
36 | Cc1nc(CN2CCO[C@@H]3CN(Cc4ccsc4)C[C@@H]3C2)cs1 | 0.892
37 | COc1ccccc1CCNC(=O)N1CCCC(c2nncn2C)C1 (centres undefined) | -1.17
38 | c1ccc(COC[C@@]23CCC[C@@H]2CN(Cc2ccccn2)C3)nc1 | 0.536
39 | COc1ccc(CN(C)CC2(O)CCNC2)cc1 (centres undefined) | 0.252
40 | CC1=CCN(C(=O)Nc2ccccc2N2CCOC2=O)CC1 | 0.848
41 | CCN(Cc1ccoc1)C(=O)Nc1ccccc1CN(C)C(C)=O | 22
42 | Cc1c(C(=O)NCCC(=O)N2CCOCC2)oc2c(C)cccc12 | -12.9
43 | Cn1cncc1CN1CCC2(CC1)COCCN(S(C)(=O)=O)C2 | -8.74
44 | C[C@@H]1CN(CC(C)(C)N2CCCCC2)C[C@@]1(O)C1CC1 | -1.88

From ChEMBL document CHEMBL3507680, “University of Dundee, Gates Library screen for HepG2 cell viability”
